From paper PMC4146477, “Synthesis and Antimycobacterial and Photosynthesis-Inhibiting Evaluation of 2-[(E)-2-Substituted-ethenyl]-1,3-benzoxazoles” (The Scientific World Journal, 2014)
In brackets after ≈: the same amount, converted by molar mass. Several values for one entry are separate records, joined by “and”; a condition that tells them apart may be missing. Identical values can stand only once. Like-named read-outs stand apart in the source and are kept apart here.

Legend:
[1] = Lipophilicity determination by RP-HPLC (capacity factor k / log k); assay type: physicochemical; conditions: C18, MeOH 70% / H2O 30%, isocratic
Source text: A Waters Alliance 2695 XE HPLC separation module and a Waters Photodiode Array Detector 2996 (Waters Corp., Milford, MA, USA) were used. A Symmetry C18 5 μm, 4.6 × 250 mm, Part No. WAT054275 (Waters Corp., Milford, MA, USA) chromatographic column was used. The HPLC separation process was monitored by Empower 2 Chromatography Data Software, Waters 2009 (Waters Corp., Milford, MA, USA). A mixture of MeOH p.a. (70%) and H2O-HPLC - Mili-Q Grade (30%) was used as a mobile phase. The total flow of the column was 1.0 mL/min, injection volume, 30 μL, column temperature, 45°C, and sample temperature, 10°C. The detection wavelength of 210 nm was chosen. The KI methanolic solution was used for the dead time (t D) determination. Retention times (t R) were measured in minutes. The capacity factors k were calculated using the Empower 2 Chromatography Data Software according to formula k = (t R − t D)/t D, where t R is the retention time of the solute, whereas t D denotes the dead time obtained using an unretained analyte.
Lipophilicity is a property that has a major effect on ADME/Tox properties as well as pharmacological activity, because drugs mostly cross biological membranes through passive transport, which strongly depends on their lipophilicity. Lipophilicity has been studied and applied as an important drug property for decades. This parameter was measured by means of RP-HPLC and expressed as logarithm of capacity factor k. The procedure was performed under isocratic conditions with methanol as an organic modifier in the mobile phase using an end-capped nonpolar C18 stationary RP column. The hydrophobic contributions (expressed as distributive parameters π) of individual substituents in C(2) position of 2-[(E)-2-substituted-ethenyl]-1,3-benzoxazole scaffold were predicted using ACD/Percepta ver. 2012 (Advanced Chemistry Development, Inc., Toronto, ON, Canada). The results are shown in Table 1 and the match of the experimental determined lipophilicity log k with calculated distributive parameters π is illustrated in Figure 1.

[2] = system: Mycobacterium tuberculosis My 331/88; assay: In vitro antimycobacterial evaluation (MIC, Sula semisynthetic medium); assay type: cell-based
M. avium My 330/88 = assay: as above; assay type: cell-based; conditions: Mycobacterium avium
M. kansasii My 235/80 = assay: as above; assay type: cell-based; conditions: Mycobacterium kansasii
[3] = system: photosynthetic electron transport (PET) in spinach chloroplasts; assay: Inhibition of photosynthetic electron transport (PET) in spinach chloroplasts (DCPIP photoreduction); assay type: biochemical, Spinacia oleracea L.; conditions: DCPIP as electron acceptor
Procedure: Chloroplasts were prepared from spinach (Spinacia oleracea L.) according to Masarovicova and Kralova. The inhibition of photosynthetic electron transport (PET) in spinach chloroplasts was determined spectrophotometrically (Genesys 6, Thermo Scientific), using an artificial electron acceptor 2,6-dichlorophenol-indophenol (DCPIP) according to Kralova et al., and the rate of photosynthetic electron transport was monitored as a photoreduction of DCPIP. The measurements were carried out in phosphate buffer (0.02 mol/L, pH 7.2) containing sucrose (0.4 mol/L), MgCl2 (0.005 mol/L), and NaCl (0.015 mol/L). The chlorophyll content was 30 mg/L in these experiments and the samples were irradiated (~100 W/m^2 with 10 cm distance) with a halogen lamp (250 W) using a 4 cm water filter to prevent warming of the samples (suspension temperature 22°C). The studied compounds were dissolved in DMSO due to their limited water solubility. […] The inhibitory efficiency of the studied compounds was expressed by IC50 values, that is, by molar concentration of the compounds causing 50% decrease in the oxygen evolution rate relative to the untreated control.

[4] = system: aromatic amino acids in photosynthetic proteins of spinach chloroplasts; assay: Aromatic amino acids (AAA) fluorescence in spinach chloroplasts; assay type: biochemical, Spinacia oleracea L.; conditions: increasing concentration (0, 3.2, 6.4, 9.6 μmol/L), excitation 275 nm
Procedure: The fluorescence emission spectra of aromatic amino acids (AAA) in spinach chloroplasts were recorded on fluorescence spectrophotometer F-2000 (Hitachi, Tokyo, Japan) using excitation wavelength λ ex = 275 nm, excitation slit 20 nm, and emission slit 10 nm. The phosphate buffer used for dilution of the chloroplast suspension was the same as described above. Due to low aqueous solubility the compounds were added to the chloroplast suspension in DMSO solution. The DMSO concentration in all samples was the same as in the control (10%). The chlorophyll concentration in the chloroplast suspension was 10 mg/L. The interaction of studied compounds with aromatic amino acids (AAA) occurring in photosynthetic proteins of spinach chloroplasts situated in PS II was monitored by the quenching of AAA fluorescence at 334 nm.

[5] = MY331/88, 336 h, 14d incubation
[6] = MY331/88, 504 h, 21d incubation
[7] = MY330/88, 336 h, 14d incubation
[8] = MY330/88, 504 h, 21d incubation
[9] = MY235/80, 336 h, 14d incubation, read-out: MIC MK
[10] = MY235/80, 504 h, 21d incubation, read-out: MIC MK
[11] = MY235/80, incubation time not stated, read-out: inhibitory activity (MIC) against M. kansasii

SMILES	log k [1]	MIC [2, 5] [µM]	MIC [2, 6] [µM]	MIC (M. avium My 330/88; [7]) [µM]	MIC (M. avium My 330/88; [8]) [µM]	MIC (M. kansasii My 235/80; [9]) [µM]	MIC (M. kansasii My 235/80; [10]) [µM]	IC50 [3] [µM]	AAA fluorescence at 334 nm [4]	MIC (M. kansasii My 235/80; [11]) [µM]
C(=C\c1nc2ccccc2o1)/c1ccccc1 [Compound 1, 2-[(E)-2-Phenylethenyl]-1,3-benzoxazole]	0.9409	125 (≈ 27.7 µg/mL)	125 (≈ 27.7 µg/mL)	62.5 (≈ 13.8 µg/mL)	125 (≈ 27.7 µg/mL)	125 (≈ 27.7 µg/mL)	125 (≈ 27.7 µg/mL)	149	–	–
COc1ccccc1/C=C/c1nc2ccccc2o1 [Compound 2, 2-[(E)-2-(2-Methoxyphenyl)ethenyl]-1,3-benzoxazole]	0.9325	125 (≈ 31.4 µg/mL)	125 (≈ 31.4 µg/mL)	62.5 (≈ 15.7 µg/mL)	125 (≈ 31.4 µg/mL)	125 (≈ 31.4 µg/mL)	125 (≈ 31.4 µg/mL)	76.3	–	–
COc1ccc(/C=C/c2nc3ccccc3o2)cc1 [Compound 3, 2-[(E)-2-(4-Methoxyphenyl)ethenyl]-1,3-benzoxazole]	0.9382	62.5 (≈ 15.7 µg/mL)	62.5 (≈ 15.7 µg/mL)	32 (≈ 8.04 µg/mL)	62.5 (≈ 15.7 µg/mL)	62.5 (≈ 15.7 µg/mL)	125 (≈ 31.4 µg/mL)	216	strong decline	–
CSc1ccc(/C=C/c2nc3ccccc3o2)cc1 [Compound 4, 2-{(E)-2-[4-(Methylsulfanyl)phenyl]ethenyl}-1,3-benzoxazole]	1.1225	62.5 (≈ 16.7 µg/mL)	125 (≈ 33.4 µg/mL)	62.5 (≈ 16.7 µg/mL)	62.5 (≈ 16.7 µg/mL)	62.5 (≈ 16.7 µg/mL)	62.5 (≈ 16.7 µg/mL)	199	–	62.5 (≈ 16.7 µg/mL)
Cc1ccc(/C=C/c2nc3ccccc3o2)cc1 [Compound 5, 2-[(E)-2-(4-Methylphenyl)ethenyl]-1,3-benzoxazole]	1.1226	250 (≈ 58.8 µg/mL)	250 (≈ 58.8 µg/mL)	125 (≈ 29.4 µg/mL)	250 (≈ 58.8 µg/mL)	250 (≈ 58.8 µg/mL)	500 (≈ 118 µg/mL)	102	–	–
Clc1ccc(/C=C/c2nc3ccccc3o2)cc1 [Compound 6, 2-[(E)-2-(4-Chlorophenyl)ethenyl]-1,3-benzoxazole]	1.1226 and 1.1271	250 (≈ 63.9 µg/mL)	250 (≈ 63.9 µg/mL)	250 (≈ 63.9 µg/mL)	500 (≈ 128 µg/mL)	500 (≈ 128 µg/mL)	500 (≈ 128 µg/mL)	517	–	500 (≈ 128 µg/mL)
FC(F)(F)c1ccc(/C=C/c2nc3ccccc3o2)cc1 [Compound 7, 2-{(E)-2-[4-(Trifluoromethyl)phenyl]ethenyl}-1,3-benzoxazole]	1.1317	125 (≈ 36.2 µg/mL)	250 (≈ 72.3 µg/mL)	125 (≈ 36.2 µg/mL)	250 (≈ 72.3 µg/mL)	250 (≈ 72.3 µg/mL)	500 (≈ 145 µg/mL)	–	–	–
